Experimental data reported in PubChem BioAssay AID179 (DTP/NCI, 2004).
Several values for one entry are separate records, joined by “and”; a condition that tells them apart may be missing. Identical values can stand only once. Activity calls are given as the source filed them.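 How the source made its calls: active means compounds giving half or more protection of infected cells from virus-caused growth loss, again on retest; inactive means the rest.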

System: CEM cells HIV-1 protection, formazan growth assay
Experiment: NCI AIDS Antiviral Assay
Settings: for IC50: measured here: growth of uninfected CEM cells
Outline: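 Steps: treat uninfected and HIV-1-infected human CEM cells at five drug levels; quantify growth by soluble formazan; retest any compound reaching 50% protection; classify actives from the retest.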

SMILES | EC50 | IC50 | outcome
N#CC1C(=N)Cc2ccccc2-c2ccccc21 (configuration not stated) | > 200 µM | 1.55 µM | 
O=C(Cc1ccccc1)NN1C(=O)C(Cl)C1c1ccccc1Cl (configuration not stated) | > 28.8 µM | > 28.8 µM | 
Cc1cc2[n-]c1/C=c1\[n-]/c(c(CCC(=O)O)c1C)=C\c1[n-]c(c(C)c1CCC(=O)O)/C=c1/cc(C)/c([n-]1)=C/2.[Co] | > 24 µM | > 24 µM | 
Cc1cc2nc3c(C#N)c(C)c(CCCl)c(Cl)n3c2cc1C | > 200 µM | 3.31 µM | 
CCNC(=S)NNC(=O)c1nsc2ccccc12 | > 339 µM | 186 µM | 
c1coc(-c2cc(-c3cc(-c4ccco4)on3)no2)c1 | > 933 µM | 589 µM | 
C#[N+]CCOP(=O)(OCC1OC(n2cc(C)c(=O)[nH]c2=O)CC1N=[N+]=[N-])O[C@H]1CC[C@@]2(C)C(=CC[C@H]3[C@@H]4CC[C@H](C(C)CCCC(C)C)[C@@]4(C)CC[C@@H]32)C1 (some centres not stated) | 4.17 µM and 10 µM | > 200 µM | 
COC(=O)c1c(C)cc(OC(=O)c2c(C)cc(O)c(C=O)c2O)c(C)c1O | > 151 µM | 20.4 µM | 
Cc1ccc(NC(=O)C(=O)C2C(=O)N(c3ccccc3)N=C2N)cc1C (configuration not stated) |  |  | inactive
COC(=O)CNC(=O)CSc1nnc(COc2ccc(Cl)cc2)n1-c1ccccc1 | > 200 µM | 60.3 µM | 
COc1c(O)c2c(=O)cc3c4c5c(cc(=O)c6c(O)c(OC)c(CC(C)O)c(c(c1CC(C)O)c24)c65)OCO3 (configuration not stated) | > 24 µM | 0.832 µM | 
C=CCNC(=O)CN(CC(=O)O)C1CCCCC1N(CC(=O)O)CC(=O)O (configuration not stated) | > 200 µM | > 200 µM | 
Cc1nc(C(N)=S)sc1C(/C=C/c1ccc(Cl)c(Cl)c1)=N/NC(C)(C)C | > 117 µM | > 117 µM | 
O=C1OCc2cc[n+]([O-])cc21 | > 1660 µM | > 1660 µM | 
NC(=O)C12C(=O)NC(=O)C1(C(=O)O)C2C1CCCCC1 (configuration not stated) |  |  | inactive
CN1CCc2ccccc2C(C(=O)c2ccc(Cl)cc2)C1=O (configuration not stated) | > 83.2 µM | > 83.2 µM | 
N#Cc1c(N=C2CCCCC2)c(C(=O)Nc2ccccc2)n2c1CCCC2 | > 50.1 µM | > 50.1 µM | 
CCCCCCCCCCCCC(=O)N1CCOCC1 | > 200 µM | 52.5 µM | 
CCC1=C(c2ccc(OC)cc2)CCC2(CCNC2)C1C (configuration not stated) | > 513 µM | 10.5 µM | 
O=[N+]([O-])c1ccc(-c2nn3c(C45CC6CC(CC(C6)C4)C5)nnc3s2)c(Cl)c1 | > 200 µM | > 200 µM | 
Cc1cc[n+]2c(c1)-c1cc(C)cc[n+]1CC2 | > 200 µM | 162 µM | 

SMILES | EC50 | IC50 | outcome
N#C/C(=C\c1cccc(N)c1)c1ccccc1 | > 200 µM | 57.5 µM | 
CN(C)CC/C=C1\c2ccccc2CSc2ccccc21 | > 200 µM | 32.4 µM | 
O=C1CC2(CCC(O)(c3ccco3)C(C(=O)c3ccco3)C2)C(=O)c2ccccc2N1 (configuration not stated) | > 200 µM | > 200 µM | 
O=C1c2ccccc2C2(O)Nc3c(ccc4ccccc34)C12O (configuration not stated) | > 832 µM | 45.7 µM | 
Cc1c(-c2ccccc2)c(-c2ccc(OCCN(C)C)cc2)n2ccccc12 | > 200 µM | 10 µM | 
Cc1cc(NS(=O)(=O)c2ccc(NC(=O)c3cccc4c(Nc5ccc(S(=O)(=O)Nc6cc(C)on6)cc5)c5ccc(Cl)cc5nc34)cc2)no1 | > 240 µM | 135 µM | 
CC1(c2cccc([N+](=O)[O-])c2)C(C#N)C(=O)NC(=O)C1C#N (configuration not stated) | > 417 µM | 245 µM | 
CN1CCN(C(=S)N(C)C(=O)c2ccco2)CC1 | > 933 µM | > 933 µM | 
CC#CCCC1(C)CCCCN(C(=O)OC(C)C)C1OCC (configuration not stated) | > 43.7 µM | > 43.7 µM | 
O=[N+]([O-])c1ccccc1/C=C/c1ccccn1 | > 16.6 µM | > 16.6 µM | 
N#Cc1c(-c2ccc(Cl)c(Cl)c2)c(-c2ccc(Cl)c(Cl)c2)nn(CCO)c1=O | > 41.7 µM | 0.759 µM | 
COc1cccc(OC)c1/C=N\N1C(=O)c2ccccc2C1=O | > 115 µM | 12 µM | 
C/C(=C/C=C(/C)C(=O)O)C(=O)O | > 1480 µM | > 1480 µM | 
S=c1[nH]c2cccc3c2n1C[C@@H]1CCCN1C3 | > 32.4 µM | 17 µM | 
C/C(=N\NC(N)=O)C(CN1CCOCC1)C(c1ccccc1)c1c(O)c2ccccc2oc1=O (configuration not stated) | > 81.3 µM | 67.6 µM | 
O=c1[nH]c2cc([N+](=O)[O-])ccc2nc1/C(=N/Nc1ccccc1)C(O)c1ccc(C(O)/C(=N\Nc2ccccc2)c2cnc3cc([N+](=O)[O-])ccc3n2)cc1 (configuration not stated) | > 49 µM | 17 µM | 
CCOC(=O)C(NC(=O)c1cccc(Cl)c1)(Nc1ccc(S(=O)(=O)Nc2cc(C)on2)cc1)C(F)(F)F (configuration not stated) | > 200 µM | 155 µM | 
Cc1cccc(C)c1N1C(=O)C(=O)C(c2nc3ccccc3s2)/C(=N\N)C1=O (configuration not stated) |  |  | inactive
O=C1c2ccccc2C(=O)C1(Br)C(Cl)c1ccccc1 (configuration not stated) | > 200 µM | 3.55 µM | 
C/C=C/[C@@H](C(=O)OC)N1C(=O)c2ccccc2[C@H]1O | > 200 µM | > 200 µM | 
CCOC(=O)c1cc2c3c(c1)C(=O)C(C)CN3CC(C)C2=O (configuration not stated) |  |  | inactive

SMILES | EC50 | IC50 | outcome
COc1ccc(/C=C2\N=C(N3CCOCC3)NC2=O)cc1 | > 200 µM | > 200 µM | 
Cn1ccc2c(C(=O)c3ccccc3)cccc2c1=O |  |  | inactive
CC1Cc2c(cc(N)nc2Br)NC1=O (configuration not stated) | > 200 µM | 95.5 µM | 
O=C1C(c2ccc([N+](=O)[O-])cc2)=[N+]([O-])c2ccccc21 |  |  | inactive
S=C1SC(=Nc2ccccc2)C(=Nc2ccccc2)N1c1ccc2ccccc2c1 | > 200 µM | 14.1 µM | 
CC(C)C(=O)CC(c1ccc(Cl)cc1)N1N=C(C(C)C)CC1c1ccc(Cl)cc1 (configuration not stated) |  |  | inactive
CNS(=O)(=O)NN(C)S(=O)(=O)c1ccc(Br)cc1 | > 132 µM | > 132 µM | 
Brc1ccc(SSc2ccc(Br)cc2)cc1 | > 200 µM | 9.12 µM and 3.39 µM | 
COc1cc2c(cc1OC)C(Cc1ccc(OC)c(OC)c1Oc1ccccc1)N(C)CC2 (configuration not stated) |  |  | inactive
O=C1CC2c3[nH]c4ccccc4c3CCN2C2=C1CCCC2 (configuration not stated) | > 200 µM | 10.2 µM | 
OC(/C=C/c1ccccc1)Cc1nc2ccccc2[nH]1 (configuration not stated) | > 38 µM | > 38 µM | 
CC(=O)/C=c1\[nH]/c(=C\C=C\c2ccccc2)c(=O)n1/C=C1\C(=O)Oc2ccccc2C1=O | > 200 µM | 166 µM | 
O=C(O)C1Cc2ccccc2OC1=O (configuration not stated) | > 200 µM | > 200 µM | 
O=C(O)c1cc2sc(C(=O)O)cc2s1 |  |  | inactive
COc1cc(Cc2nnc(N)nc2N)cc(OC)c1OC | > 17.8 µM | > 17.8 µM | 
O=C(NC(CO)CO)c1ccc2cc(C(=O)N3CC(CCl)c4ccc([N+](=O)[O-])cc43)[nH]c2c1 (configuration not stated) | > 200 µM | 53.7 µM | 
CCCCCC(/C=C/[C@@H]1CC(=O)C[C@H]1O[Si](C)(C)C(C)(C)C)OCOCCOC (some centres not stated) | 5.75 µM | 7.59 µM | 
O=c1n(-c2ccccc2)c(=O)n(-c2ccccc2)c(=O)n1-c1ccccc1 | > 200 µM | > 200 µM | 
C[C@H](CCCN1CCOCC1)[C@H]1CC[C@H]2[C@@H]3CC[C@@H]4C[C@H](O)CC[C@]4(C)[C@H]3CC[C@]12C | > 50.1 µM | 9.12 µM | 
Cc1cccc(NC(=S)Nc2ccc(Cl)cc2)n1 | > 200 µM | > 200 µM | 
COP(=O)(OC)OC1C(=O)NC(=O)NC1=O | > 200 µM | > 200 µM | 
